The values below come from EP0684043A1, “Therapeutic composition for corneal impairment containing a phosphonic acid diester compound” (Senju Pharmaceutical Co., Ltd., priority 1994, dated 1995).

Read-outs that look alike come from different tables or passages of the source. Bounds are passed on as bounds.

One data set in a line: Acute toxicity (LD50). To be noted: rat, in vivo, rats, read-out: LD₅₀. The method, then: The compound for use as an active ingredient in the therapeutic composition for corneal impairment according to this invention is a very safe substance with an extremely low toxic potential and, as such, can be used with advantage for the purposes of this invention. [e.g. the LD₅₀ values of L-ascorbyl DL-α-tocopheryl phosphate potassium (hereinafter referred to briefly as EPC-K) ≧ 5 g/kg p.o. (rats) and ≧ 100 mg/kg i.v. (rats)].

The subject of data set [1] is UV-induced corneal lesions in rabbits. As to the kind of experiment: Inhibitory effect on UV-induced corneal lesions in rabbits (fluorescein penetration into cornea, anterior fluorophotometer). It counts as in vivo, White rabbits. To be noted: rabbit cornea. As for the experimental part: The inhibitory effect of the present compound on UV-induced corneal lesions in rabbits was evaluated. Test substance: L-Ascorbyl DL-α-tocopheryl phosphate potassium (abbreviation: EPC-K). Method: White rabbits were used; 4 animals assigned to the present compound treatment group and 3 assigned to a control group (the nictitating membrane was excised beforehand).
For UV irradiation, Hoya-Schott's HLS200U (dominant wavelength 365 nm) equipped with a 200 W mercury-xenon lamp as the light source was used. Ushio Electric's Unimeter UIT-101 was used for the determination of luminous energy.
One eye of each rabbit was kept open with an eye speculum and set at a distance of 43 cm from the light source so that the irradiation energy would be 0.024 J/cm². The eye was irradiated with ultraviolet light under the conditions of 0.2 mW/cm² and 2 minutes. The fellow eye was protected with an eye patch.
After UV irradiation, the vehicle (2.6% concentrated glycerin solution) was instilled in the eyes of rabbits in the control group 3 times daily and 0.1% EPC-K (dissolved in 2.6% concentrated glycerin solution) was instilled as often into the eyes of rabbits in the present compound treatment group.
The degree of rabbit corneal lesion was evaluated by the following method^1). Using fluorescein as a tracer, the fluorescence intensity of the tracer dye penetrating into the cornea within a predetermined region was measured for a quantitative assessment of the barrier function of the corneal epithelium (The corneal epithelium has a barrier function^2) to restrict penetration of any substance into the deep layer of the cornea and when an erosion or other injury occurs in the corneal epithelium, this barrier function is compromised so that the penetration of the substance into the depth of the cornea is increased). Thus, at 0, 0.5, 6, 12, 24, 48 and 72 hours after UV irradiation, fluorescein sodium was instilled into the eye and the fluorescence intensity of the fluorescein sodium that had penetrated into the cornea was measured with a Kowa anterior fluorophotometer. 1) Norihiko Yokoi et al.: Quantitative evaluation of corneal epithelial barrier function with a new fluorophotometer, Journal of the Eye, 10(8); 1357-1363, 1993 2) Klyce SD and Crosson CE: Transport processes across the rabbit corneal epithelium, a review. Curr Eye Res 4 4;427-432, 1985.

Take `Cc1c(C)c2c(c(C)c1OP(=O)(O)OC1=C(O)[C@@H]([C@@H](O)CO)OC1=O)CCC(C)(CCCC(C)CCCC(C)CCCC(C)C)O2` (mixture of isomers) [EPC-K, L-ascorbyl DL-α-tocopheryl phosphate potassium]: the LD50 is no less than 100 mg/kg in the data set “Acute toxicity (LD50)” (iv) and no less than 5000 mg/kg in the data set “Acute toxicity (LD50)” (po). Besides, the intensity of fluorescence in data set [1] (0 hours after UV irradiation, 0.1% EPC-K in 2.6% concentrated glycerin solution instilled 3 times daily, control group 457) was 259; in data set [1] (0.5 hours after UV irradiation, 0.1% EPC-K instilled 3 times daily, control group 791) it was 447; in data set [1] (6 hours after UV irradiation, 0.1% EPC-K instilled 3 times daily, control group 899), 695; in data set [1] (12 hours after UV irradiation, 0.1% EPC-K instilled 3 times daily, control group 3813), 1038; in data set [1] (24 hours after UV irradiation, 0.1% EPC-K instilled 3 times daily, control group 3860), 875; in data set [1] (48 hours after UV irradiation, 0.1% EPC-K instilled 3 times daily, control group 870), 343. The compound further displayed an intensity of fluorescence in data set [1] (72 hours after UV irradiation, 0.1% EPC-K instilled 3 times daily, control group 655) of 311.
